According to US9302014B2, “Cell-penetrating peptides having a central hydrophobic domain” (Medical Research Council, priority 2011, dated 2016):
Non-standard residues stand in square brackets, D forms with d. No end group written: not given here. Ahx = NCCCCCC(=O)O; βAla = NCCC(=O)O

Experiments:
dystrophin [1] = test: Immunohistochemical staining and quantification of dystrophin in mdx mice after single IV injection; format: in vivo; details: 8 week old mdx mice, single 12.5 mg/kg IV, 2 weeks after injection
Text: Given the potency of Pip5e-PMO in heart tissue, the aim of altering the sequence of the hydrophobic core (whilst maintaining the 5-aa length) was to identify peptides that might be more efficient at lower doses. These modifications included inversion of the hydrophobic region (Pip6a), substitution of tyrosine by isoleucine (Pip6b), substitution of glutamine in the Pip6a sequence by displacement of the arginine immediately flanking the core in the first arginine-rich flanking region (Pip6e), and a scrambled hydrophobic core sequence (Pip6f). All Pip6 peptide-PMO conjugates were administered to mdx mice as single 12.5 mg/kg intravenous injections via the tail vein and tissues were harvested 2 weeks later and assessed for activity at both RNA and protein levels.
Immunohistochemical staining quantification (FIGS. 34a, b) was performed as previously described [Malerba, A., et al., Chronic systemic therapy with low-dose morpholino oligomers ameliorates the pathology and normalizes locomotor behavior in mdx mice. Mol Ther, 2011. 19(2): p. 345-54; Arechavala-Gomeza, V., et al., Immunohistological intensity measurements as a tool to assess sarcolemma-associated protein expression. Neuropathol Appl Neurobiol, 2010. 36(4): p. 265-74.] and was achieved by taking 4 representative frames of the dystrophin staining and correlating this with laminin staining for each section (n=3) of the quadriceps, diaphragm and heart for each peptide-PMO treatment. Untreated mdx and treated mdx mice were normalised to C57BL10 mice. This method allows comparison of the staining intensity of dystrophin at the sarcolemma relative to laminin for each treatment group. Intensity ratios are normalised to C57BL10 samples and each region of interest at the sarcolemma (120 regions for each treatment group) is plotted on a scatter graph. […]
Transverse sections of tissue samples were cut (8 μm thick) for the examination of dystrophin expression. For dystrophin visualisation and quantification, sections were co-stained with rabbit-anti-dystrophin (Abcam) and rat anti-laminin (Sigma), and detected by goat-anti-rabbit IgG Alexa 594 and goat-anti-rat IgG 488 secondary antibodies respectively (Invitrogen). […] Quantitative immunohistochemistry was performed as previously described [Malerba, A., et al., Chronic systemic therapy with low-dose morpholino oligomers ameliorates the pathology and normalizes locomotor behavior in mdx mice. […] For quantification, 4 representative frames of the dystrophin and correlating laminin were taken for each section (n=3) of the quadriceps, diaphragm and heart for each treatment. […] The minimum and maximum fluorescence intensity for 120 regions were recorded for each treatment. […]

dystrophin [2] = test: Western blot quantification of dystrophin protein in mdx mouse muscles; format: in vivo; details: lead PPMO comparison; 8 week old mdx mice, 12.5 mg/kg IV, 2 weeks
Description: The RTPCR representative images (FIG. 34d) illustrate high exon skipping efficiency in all tissues analysed. This is better shown by Real Time PCR (qRT-PCR) results for the quadriceps, diaphragm and heart (FIG. 34c). The delta 23 transcript is normalised against ‘total dystrophin’ for each muscle group (n=3). […] Western blots (FIG. 34e) were performed on the tissues of each mouse and were quantified against a 50% and 10% C57BL10 control.
Four and a half month old to 5½ month old mdx mice were used in these experiments (n=3). The experiments were carried out in the Biomedical Sciences Unit, University of Oxford according to procedures authorised by the UK Home Office. […]
Control and treated muscle samples were homogenised in lysis buffer comprising 75 mM Tris-HCl (pH 6.5) and 10% Sodium Dodecyl Sulphate complemented with 5% 2-mercaptoethanol. […] Protein levels were measured by Bradford assay (Sigma) and quantified using BSA standards. […] Primary antibody was detected by binding of horseradish peroxidise-conjugated anti-mouse IgG with lumigen. Western blots were imaged (LiCOR Biosciences) and analysed using the Odyssey imaging system.
The dystrophin protein level in PPMO treated mdx muscles was quantified by western blot analysis. The density of the dystrophin band was quantified using Licor software and vinculin was used as the loading control. […]

For “Pip9d2: Pip9 series peptide (SEQ ID Nos 320-328) conjugated to PMODMD (R[Ahx]RR[βAla]RFQILY[βAla]R[Ahx]R[βAla]; also: conjugated to PMO (PMODMD))”, the “dystrophin expression in the heart” value (dystrophin [1]) was “negligible dystrophin production” and the “dystrophin protein level by western blot (vinculin loading control)” value (dystrophin [2]) was “negligible dystrophin production”.
